Experimental data published in US7138361B2, “Herbicidal heterocycles” (E. I. du Pont de Nemours and Company, priority 2000, dated 2006).

What was measured:
Type in all cases: in vivo
[1] = system: morning glory (Ipomoea hederacea); assay: Test B preemergence
Summary of the method: (§1)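 Post-treatment, species sat 13–15 days under greenhouse conditions before visual scoring against controls, 0 (no effect) through 100 (complete control). Application preemergence to sown seeds or postemergence at 1- to 4-leaf stage, using a non-phytotoxic solvent/surfactant formulation.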

[2] = system: lambsquarters (Chenopodium album); assay: Test B preemergence
Summary of the method: as §1

corn (Zea mays) = assay: Test B preemergence
Summary of the method: as §1

[3] = system: pigweed (Amaranthus retroflexus); assay: Test B preemergence
Summary of the method: as §1

[4] = system: Surinam grass (Brachiaria decumbens); assay: Test B preemergence
Summary of the method: as §1

[5] = system: velvetleaf (Abutilon theophrasti); assay: Test B preemergence
Summary of the method: as §1

[6] = system: crabgrass (Digitaria sanguinalis); assay: Test B preemergence
Summary of the method: as §1

[7] = system: barnyardgrass (Echinochloa crus-galli); assay: Test B preemergence
Summary of the method: as §1

[8] = system: cocklebur (Xanthium strumarium); assay: Test B preemergence
Summary of the method: as §1

rice (Oryza saliva) = assay: Test B preemergence
Summary of the method: as §1

[9] = system: giant foxtail (Setaria faberii); assay: Test B preemergence
Summary of the method: as §1

[10] = system: Surinam grass (Brachiaria decumbens); assay: Test C preemergence
Source text: (§2) Seeds of plant species selected from bermudagrass (Cynodon dactylon), Surinam grass (Brachiaria decumbens), cocklebur (Xanthium strumarium), corn (Zea mays), crabgrass (Digitaria sanguinalis), woolly cupgrass (Eriochloa villosa), giant foxtail (Setaria faberii), goosegrass (Eleusine indica), johnsongrass (Sorghum halepense), kochia (Kochia scoparia), lambsquarters (Chenopodium album), morningglory (Ipomoea hederacea), yellow nutsedge (Cyperus esculentus), pigweed (Amaranthus retroflexus), common ragweed (Ambrosia elatior), soybean (Glycine max) and velvetleaf (Abutilon theophrasti) were planted and treated preemergence with test chemicals formulated in a non-phytotoxic solvent mixture which included a surfactant.
(§3) At the same time, plants selected from these crop and weed species and also winter barley (Hordeum vulgare), blackgrass (Alopecurus myosuroides), canary grass (Phalaris minor), chickweed (Stellaria media), downy brome (Bromus tectorum), green foxtail (Setaria viridis), Italian ryegrass (Lolium multiflorum), wheat (Triticum aestivum), wild oat (Avena fatua) and windgrass (Apera spica-venti) were treated with postemergence applications of some of the test chemicals formulated in the same manner. Plants ranged in height from 2 to 18 cm (1- to 4-leaf stage) for postemergence treatments. Plant species in the flooded paddy test consisted of rice (Oryza saliva), smallflower flatsedge (Cyperus difformis), duck salad (Heteranthera limosa) and barnyardgrass (Echinochloa crus-galli) grown to the 2-leaf stage for testing. Treated plants and controls were maintained in a greenhouse for 12 to 14 days, after which time all species were compared to controls and visually evaluated. Plant response ratings, summarized in Table C, are based on a scale of 0 to 100 where 0 is no effect and 100 is complete control. A dash (-) response means no test result.

[11] = system: velvetleaf (Abutilon theophrasti); assay: Test C preemergence
Source text: as §2, §3

[12] = system: goosegrass (Eleusine indica); assay: Test C preemergence
Source text: as §2, §3

[13] = system: bermudagrass (Cynodon dactylon); assay: Test C preemergence
Source text: as §2, §3

[14] = system: morningglory (Ipomoea hederacea); assay: Test C preemergence
Source text: as §2, §3

[15] = system: common ragweed (Ambrosia elatior); assay: Test C preemergence
Source text: as §2, §3

[16] = system: crabgrass (Digitaria sanguinalis); assay: Test C preemergence
Source text: as §2, §3

[17] = system: cocklebur (Xanthium strumarium); assay: Test C preemergence
Source text: as §2, §3

[18] = system: giant foxtail (Setaria faberii); assay: Test C preemergence
Source text: as §2, §3

Sunflower = assay: Test C preemergence; details: Rate 125 g/ha; scale 0 to 100, 0 no effect, 100 complete control
Source text: as §2, §3

[19] = Preemergence, Rate 500 g/ha, scale 0 to 100, 0 no effect, 100 complete control
[20] = preemergence, Rate 125 g/ha, scale of 0 to 100 where 0 is no effect and 100 is complete control, 13 to 15 days
[21] = Rate 125 g/ha, scale 0 to 100, 0 no effect, 100 complete control
[22] = preemergence, Rate 31 g/ha, scale 0 to 100
[23] = preemergence, Rate 62 g/ha, scale 0 to 100
[24] = preemergence, Rate 250 g/ha, scale 0 to 100, 0 no effect, 100 complete control

CCOc1cc(N2CCC(n3ccc(C(C)(C)C)n3)C2=O)ccc1C (stereo not drawn) [Compound 106]
100: Plant response rating, Morningglory [1, 19] | Plant response rating, Morningglory [1, 20] | Plant response rating, Lambsquarters [2, 19] | Plant response rating, Lambsquarters [2, 20] | Plant response rating, Pigweed [3, 19] | Plant response rating, Pigweed [3, 20] | Plant response rating, Surinam grass [4, 19] | Plant response rating, Surinam grass [4, 20] | Plant response rating, Velvetleaf [5, 19] | Plant response rating, Crabgrass [6, 19] | Plant response rating, Crabgrass [6, 20] | Plant response rating, Barnyardgrass [7, 19] | Plant response rating, Cocklebur [8, 19] | Plant response rating, Rice (rice (Oryza saliva); [19]) | Plant response rating, Surinam grass [10, 24] | Plant response rating, Velvetleaf [11, 21] | Plant response rating, Velvetleaf [11, 23] | Plant response rating, Velvetleaf [11, 24] | Plant response rating, Goosegrass [12, 21] | Plant response rating, Goosegrass [12, 22] | Plant response rating, Goosegrass [12, 23] | Plant response rating, Goosegrass [12, 24] | Plant response rating, Bermudagrass [13, 21] | Plant response rating, Bermudagrass [13, 22] | Plant response rating, Bermudagrass [13, 23] | Plant response rating, Bermudagrass [13, 24] | Plant response rating, Morningglory [14, 21] | Plant response rating, Morningglory [14, 24] | Plant response rating, Ragweed, Common [15, 21] | Plant response rating, Ragweed, Common [15, 23] | Plant response rating, Ragweed, Common [15, 24] | Plant response rating, Crabgrass [16, 21] | Plant response rating, Crabgrass [16, 22] | Plant response rating, Crabgrass [16, 23] | Plant response rating, Crabgrass [16, 24] | Plant response rating, Cocklebur [17, 24] | Plant response rating, Foxtail, Giant [18, 24]
70: Plant response rating, Cocklebur [17, 22]
80: Plant response rating, Morningglory [14, 22] | Plant response rating, Ragweed, Common [15, 22] | Plant response rating, Sunflower (Sunflower)
40: Plant response rating, Foxtail, Giant [9, 20] | Plant response rating, Foxtail, Giant [18, 21]
60: Plant response rating, Foxtail, Giant [9, 19]
30: Plant response rating, Corn (corn (Zea mays); [19]) | Plant response rating, Corn (corn (Zea mays); [20]) | Plant response rating, Cocklebur [8, 20] | Plant response rating, Surinam grass [10, 22]
0: Plant response rating, Velvetleaf [5, 20] | Plant response rating, Rice (rice (Oryza saliva); [20]) | Plant response rating, Foxtail, Giant [18, 22] | Plant response rating, Foxtail, Giant [18, 23]
90: Plant response rating, Barnyardgrass [7, 20] | Plant response rating, Surinam grass [10, 21] | Plant response rating, Surinam grass [10, 23] | Plant response rating, Velvetleaf [11, 22] | Plant response rating, Morningglory [14, 23] | Plant response rating, Cocklebur [17, 21] | Plant response rating, Cocklebur [17, 23]

CC(C)(C)c1ccn(C2CCN(c3cccc([S+]([O-])C(F)(F)F)c3)C2=O)n1 (stereo not drawn) [Compound 101]
20: Plant response rating, Surinam grass [10, 21] | Plant response rating, Velvetleaf [11, 22] | Plant response rating, Velvetleaf [11, 23]
10: Plant response rating, Goosegrass [12, 22]
0: Plant response rating, Morningglory [1, 19] | Plant response rating, Morningglory [1, 20] | Plant response rating, Corn (corn (Zea mays); [20]) | Plant response rating, Surinam grass [4, 20] | Plant response rating, Velvetleaf [5, 19] | Plant response rating, Velvetleaf [5, 20] | Plant response rating, Cocklebur [8, 19] | Plant response rating, Cocklebur [8, 20] | Plant response rating, Rice (rice (Oryza saliva); [20]) | Plant response rating, Foxtail, Giant [9, 20] | Plant response rating, Surinam grass [10, 22] | Plant response rating, Surinam grass [10, 23] | Plant response rating, Morningglory [14, 21] | Plant response rating, Morningglory [14, 22] | Plant response rating, Morningglory [14, 23] | Plant response rating, Ragweed, Common [15, 22] | Plant response rating, Ragweed, Common [15, 23] | Plant response rating, Cocklebur [17, 21] | Plant response rating, Cocklebur [17, 22] | Plant response rating, Cocklebur [17, 23] | Plant response rating, Foxtail, Giant [18, 22] | Plant response rating, Sunflower (Sunflower)
30: Plant response rating, Barnyardgrass [7, 20]
100: Plant response rating, Lambsquarters [2, 19] | Plant response rating, Lambsquarters [2, 20] | Plant response rating, Pigweed [3, 19] | Plant response rating, Crabgrass [6, 19] | Plant response rating, Barnyardgrass [7, 19] | Plant response rating, Foxtail, Giant [9, 19] | Plant response rating, Goosegrass [12, 21] | Plant response rating, Goosegrass [12, 23] | Plant response rating, Goosegrass [12, 24] | Plant response rating, Bermudagrass [13, 21] | Plant response rating, Bermudagrass [13, 24] | Plant response rating, Morningglory [14, 24] | Plant response rating, Ragweed, Common [15, 21] | Plant response rating, Ragweed, Common [15, 24] | Plant response rating, Crabgrass [16, 21] | Plant response rating, Crabgrass [16, 23] | Plant response rating, Crabgrass [16, 24] | Plant response rating, Foxtail, Giant [18, 24]
50: Plant response rating, Velvetleaf [11, 21] | Plant response rating, Cocklebur [17, 24]
70: Plant response rating, Corn (corn (Zea mays); [19])
90: Plant response rating, Crabgrass [6, 20] | Plant response rating, Velvetleaf [11, 24] | Plant response rating, Crabgrass [16, 22]
80: Plant response rating, Surinam grass [4, 19]
40: Plant response rating, Pigweed [3, 20] | Plant response rating, Surinam grass [10, 24] | Plant response rating, Bermudagrass [13, 22] | Plant response rating, Bermudagrass [13, 23] | Plant response rating, Foxtail, Giant [18, 21] | Plant response rating, Foxtail, Giant [18, 23]
